Laboratory results as given in patent US20240360114A1 (SIRONAX LTD., priority 2021, published 2024).

Tested on: HT-1080 cells
Test: HT-1080 cell viability assay (ferroptosis induced by RSL3, Cell Titer-Glo)
Format: cell-based
Conditions: Homo sapiens, HT-1080, 20 h, ferroptosis inducer RSL3, 20 hours, ferroptosis inhibitory activity, Table 2
In short: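 Cells seeded overnight, then co-treated with RSL3 and compound (3-fold, 10-point dilution, top 1.1 μM) for 20 hours. Viability by CellTiter-Glo luminescence, normalized to untreated controls; EC50 from sigmoidal non-linear regression.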

Row | Compound | EC50 [nM]
1 | Cc1cc(N2CCC(C(F)(F)F)CC2)nc(F)c1NC1CCC(CN)CC1 (centres unmarked) [Compound 22, N-(4-(aminomethyl)cyclohexyl)-2-fluoro-4-methyl-6-(4-(trifluoromethyl)piperidin-1-yl)pyridin-3-amine] | 100 to 1000
2 | CC1CN(c2ccc(NC3C4CC5CC3CC(CN)(C5)C4)cc2)CC(C)O1 (centres unmarked) [Compound 426, 5-(aminomethyl)-N-(4-(2,6-dimethylmorpholino)phenyl)adamantan-2-amine] | 0.1 to 100
3 | Cc1nc(N2CC3CCC2CO3)ccc1NC1CC2(CC(N)C2)C1 (centres unmarked) [Compound 491, N2-(6-(2-oxa-5-azabicyclo[2.2.2]octan-5-yl)-2-methylpyridin-3-yl)spiro[3.3]heptane-2,6-diamine] | 0.1 to 100
4 | NC1CCC(Nc2ccc(-n3cccn3)cc2)CC1 (centres unmarked) [Compound 37A, N1-(4-(1H-pyrazol-1-yl)phenyl)cyclohexane-1,4-diamine] | 1000 to 10000
5 | Cc1c(N2CC(C)OC(C)C2)ccc(NC[C@H]2CC[C@H](N)CC2)c1F (some centres unmarked) [Compound 469, N-(((1r,4r)-4-aminocyclohexyl)methyl)-4-(2,6-dimethylmorpholino)-2-fluoro-3-methylaniline] | 100 to 1000
6 | Cc1nc(N2C[C@@H](C)N(CC(F)(F)F)[C@@H](C)C2)ccc1NC[C@H]1CC[C@H](N)CC1 [Compound 543, N-(((1r,4R)-4-aminocyclohexyl)methyl)-6-((3R,5S)-3,5-dimethyl-4-(2,2,2-trifluoroethyl)piperazin-1-yl)-2-methylpyridin-3-amine] | 0.1 to 100
7 | CC[C@@H]1CN(c2ccc(NC3CC4(CC(N)C4)C3)c(C)n2)C[C@@H](C)O1 (stereo partly drawn) [Compound 547, N^2-(6-((2R,6R)-2-ethyl-6-methylmorpholino)-2-methylpyridin-3-yl)spiro[3.3]heptane-2,6-diamine] | 0.1 to 100
8 | CC1(C)CCN(c2ccc(NC3CCC(N)CC3)cc2C(F)(F)F)CC1 (centres unmarked) [Compound 55, N1-(4-(4,4-dimethylpiperidin-1-yl)-3-(trifluoromethyl)phenyl)cyclohexane-1,4-diamine] | 0.1 to 100
9 | CC[C@@H]1CN(c2ccc(NC3CCC(N)CC3)c(C)n2)C[C@H](C)O1 (stereo partly drawn) [Compound 551, N1-(6-((2R,6S)-2-ethyl-6-methylmorpholino)-2-methylpyridin-3-yl)cyclohexane-1,4-diamine] | 100 to 1000
10 | CC1CN(c2ccc(NC[C@H]3CC[C@H](N)CC3)cc2Cl)CC(C)O1 (some centres unmarked) [Compound 438, N-(((1r,4r)-4-aminocyclohexyl)methyl)-3-chloro-4-(2,6-dimethylmorpholino)aniline] | 0.1 to 100
11 | CCNC1C[C@@H]2CC(Nc3ccc(N4CCC(C(F)(F)F)CC4)cc3F)C[C@@H]2C1 (stereo partly drawn) [Compound 373, (3aR,6aS)-N2-ethyl-N5-(2-fluoro-4-(4-(trifluoromethyl)piperidin-1-yl)phenyl)octahydropentalene-2,5-diamine] | 0.1 to 100
12 | CC(C)C1CCN(c2ncc(NC3C[C@H]4CC(NO)C[C@H]4C3)cn2)CC1 (stereo partly drawn) [Compound 401, N-((3aR, 6aS)-5-(hydroxyamino)octahydropentalen-2-yl)-2-(4-isopropylpiperidin-1-yl) pyrimidin-5-amine] | 0.1 to 100
13 | CC(N)C1CCC(Nc2ccc(C(C)(C)C)cc2)CC1 (centres unmarked) [Compound 290, N-(4-(1-aminoethyl)cyclohexyl)-4-(tert-butyl)aniline] | 0.1 to 100
14 | NC1CCC(Nc2ccc(C3CCC(C(F)(F)F)CC3)cc2)CC1 (centres unmarked) [Compound 280, N1-(4-(4-(trifluoromethyl)cyclohexyl)phenyl)cyclohexane-1,4-diamine] | 0.1 to 100
15 | Cc1nc(N2C[C@H](C)O[C@@H](C)C2)ccc1NC1CC2(CC(N)C2)C1 (stereo partly drawn) [Compound 479, N2-(6-((2S,6S)-2,6-dimethylmorpholino)-2-methylpyridin-3-yl)spiro[3.3]heptane-2,6-diamine] | 0.1 to 100
16 | COC1(C(F)(F)F)CCN(c2ccc(NC3CC4(CC(N)C4)C3)c(C)n2)CC1 (centres unmarked) [Compound 498, N2-(6-(4-methoxy-4-(trifluoromethyl)piperidin-1-yl)-2-methylpyridin-3-yl)spiro[3.3]heptane-2,6-diamine] | 0.1 to 100

Row | Compound | EC50 [nM]
17 | CC(C)C1CCN(c2ncc(NC3CC4(CC(O)C4)C3)cn2)CC1 (centres unmarked) [Compound 422, 6-((2-(4-isopropylpiperidin-1-yl)pyrimidin-5-yl)amino)spiro[3.3]heptan-2-ol] | 0.1 to 100
18 | COC(C)(C)C1CCN(c2ccc(NC3CC4(CC(N)C4)C3)c(C)n2)CC1 (centres unmarked) [Compound 529, N2-(6-(4-(2-methoxypropan-2-yl)piperidin-1-yl)-2-methylpyridin-3-yl)spiro[3.3]-heptane-2,6-diamine] | 0.1 to 100
19 | CC1(C)CCC(c2ccc(NC3CCOCC3)cc2)CC1 [Compound 93, N-(4-(4,4-dimethylcyclohexyl)phenyl)tetrahydro-2H-pyran-4-amine] | 0.1 to 100
20 | Cc1nc(N2CCC3(CCCCO3)CC2)ccc1NC1CC2(CC(N)C2)C1 (centres unmarked) [Compound 509, N2-(2-methyl-6-(1-oxa-9-azaspiro [5.5]undecan-9-yl)pyridin-3-yl)spiro[3.3]heptane-2,6-diamine] | 0.1 to 100
21 | CC(C)(C)c1ccc(NC2CCC(C[N+](C)(C)C)CC2)cc1 (centres unmarked) [Compound 258, 1-(4-((4-(tert-butyl)phenyl)amino)cyclohexyl)-N,N,N-trimethylmethanaminium] | 1000 to 10000
22 | CCCOc1ccc(NC2CCC(N)CC2)cc1 (centres unmarked) [Compound 174, N1-(4-propoxyphenyl)cyclohexane-1,4-diamine] | 0.1 to 100
23 | CC(C)(C)c1ccc(NC2CCC(CN)C2)cc1 (centres unmarked) [Compound 241, N-(3-(aminomethyl)cyclopentyl)-4-(tert-butyl)aniline] | 0.1 to 100
24 | CCN1C(C)CN(c2ccc(NC[C@H]3CC[C@H](N)CC3)cc2)CC1C (some centres unmarked) [Compound 532, N-(((1r,4r)-4-aminocyclohexyl)methyl)-4-(4-ethyl-3,5-dimethylpiperazin-1-yl)aniline] | 100 to 1000
25 | Cc1nc(N2CCC(C)(C)CC2)ccc1NC1CCC(CN)CC1 (centres unmarked) [Compound 32A, N-(4-(aminomethyl)cyclohexyl)-6-(4,4-dimethylpiperidin-1-yl)-2-methylpyridin-3-amine] | 0.1 to 100
26 | CC(C)(C)c1ccc(NC2CCC(NCCCN)CC2)cc1 (centres unmarked) [Compound 267, 1-N-(3-aminopropyl)-4-N-(4-(tert-butyl)phenyl)cyclohexane-1,4-diamine] | 1000 to 10000
27 | Cc1cc(NC[C@H]2CC[C@H](N)CC2)cc(F)c1N1CC(C)OC(C)C1 (some centres unmarked) [Compound 464, N-(((1r,4r)-4-aminocyclohexyl)methyl)-4-(2,6-dimethylmorpholino)-3-fluoro-5-methylaniline] | 0.1 to 100
28 | CC(C)(C)c1ccc(-c2ccc(NC3CCC(N)CC3)cc2)cc1 (centres unmarked) [Compound 220, N1-(4′-(tert-butyl)-[1,l′-biphenyl]-4-yl)cyclohexane-1,4-diamine] | 0.1 to 100
29 | CC(C)(C)OC(=O)N[C@H]1CC[C@H](CNc2ccc(N3CC4CC(C3)O4)c(F)c2)CC1 [Compound 506, tert-butyl ((1r,4r)-4-(((4-(6-oxa-3-azabicyclo[3.1.1]heptan-3-yl)-3-fluorophenyl)amino)methyl)cyclohexyl) carbamate] | 0.1 to 100
30 | Cc1nc(N2CCC(C(C)C)CC2)ccc1NC1CCC(CN)CC1 (centres unmarked) [Compound 31, N-(4-(aminomethyl)cyclohexyl)-6-(4-isopropylpiperidin-1-yl)-2-methylpyridin-3-amine] | 0.1 to 100
31 | CCc1ccc(NC2CCC(N)CC2)cn1 (centres unmarked) [Compound 208, N1-(6-ethylpyridin-3-yl)cyclohexane-1,4-diamine] | 1000 to 10000

Same assay, conditions: Homo sapiens, HT-1080, 20 h, ferroptosis inducer RSL3, 20 hours, ferroptosis inhibitory activity, Table 3

Row | Compound | EC50 [nM]
32 | Cc1nc(N2CC(C)N(CC(F)(F)F)C(C)C2)c(F)cc1NC1CC2(CC(N)C2)C1 (centres unmarked) [Compound 641, N^2-(6-(3,5-dimethyl-4-(2,2,2-trifluoroethyl)piperazin-1-yl)-5-fluoro-2-methylpyridin-3-yl)spiro [3.3]heptane-2,6-diamine] | 0.1 to 100
33 | Cc1nc(N2C[C@@H](C)O[C@@H](C)C2)ccc1NC1CCCC(N)CCC1 (stereo partly drawn) [Compound 631, N1-(6-((2R,6S)-2,6-dimethylmorpholino)-2-methylpyridin-3-yl)cyclooctane-1,5-diamine] | 0.1 to 100
34 | CC[C@@H]1CN(c2ccc(NC3CC4CCC(C3)N4)c(C)n2)C[C@H](CC)O1 (stereo partly drawn) [Compound 657, N-(6-((2S,6R)-2,6-diethylmorpholino)-2-methylpyridin-3-yl)-8-azabicyclo[3.2.1]octan-3-amine] | 0.1 to 100
35 | Cc1nc(N2CCC(C)(C)CC2)ccc1NC[C@H]1CC[C@H](N)CC1 [Compound 617, N-(((1r,4r)-4-aminocyclohexyl)methyl)-6-(4,4-dimethylpiperidin-1-yl)-2-methylpyridin-3-amine] | 0.1 to 100
36 | CCc1nc(N2CC(C)N(CC(F)(F)F)C(C)C2)c(F)cc1NC1CC(N)C1 (centres unmarked) [Compound 635, N1-(6-(3,5-dimethyl-4-(2,2,2-trifluoroethyl)piperazin-1-yl)-2-ethyl-5-fluoropyridin-3-yl)cyclobutane-1,3-diamine] | 0.1 to 100

Same assay, conditions: Homo sapiens, ferroptosis inducer RSL3, 20 hours, ferroptosis inhibitory activity, Table 2

Row | Compound | EC50 [nM]
37 | CC1(C)CCC(c2ccc(NC3CCC(C(C)(C)N)CC3)cc2)CC1 (centres unmarked) [Compound 226, N-(4-(2-aminopropan-2-yl)cyclohexyl)-4-(4,4-dimethylcyclohexyl)aniline] | 0.1 to 100
38 | CC(C)(C)c1ccc(NC2CCN(C(N)=O)CC2)cc1 [Compound 178, 4-((4-(tert-butyl)phenyl)amino)piperidine-1-carboxamide] | 1000 to 10000
39 | CN1CCN(CC(=O)N2CCC(Nc3ccc(C(C)(C)C)cc3)CC2)CC1=O [Compound 222, 4-(2-{4-[(4-tert-butylphenyl)amino]piperidin-1-yl}-2-oxoethyl)-1-methylpiperazin-2-one] | 1000 to 10000

Same assay, conditions: ferroptosis inducer RSL3, 20 hours, ferroptosis inhibitory activity, Table 2

Row | Compound | EC50 [nM]
40 | CC1CN(c2ccc(NC3CC4(CC(N)C4)C3)cc2F)CC(C)N1CC(F)(F)F (centres unmarked) [Compound 186, N2-(4-(3,5-dimethyl-4-(2,2,2-trifluoroethyl)piperazin-1-yl)-3-fluorophenyl) spiro-[3.3]heptane-2,6-diamine] | 100 to 1000
41 | NCC1CCC(Nc2ccccc2)CC1 (single isomer, unassigned) [Compound 92B, N-(4-(aminomethyl)cyclohexyl)aniline] | 100 to 1000
